Holding throughout (format): in vivo
The test system of assay [1] is barnyardgrass (Echinochloa crus-galli). As to the kind of experiment: Test B flooded paddy test. As to conditions: Echinochloa crus-galli, Flood, 250 g ai/ha; scale of 0 to 100 where 0 is no effect and 100 is complete control; read-out: Barnyardgrass plant response rating. An outline of the steps: (§1)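 Rating scale 0–100 (visual, vs untreated controls) after a 13–15 d greenhouse period; application to the flood layer, 3 cm above soil and maintained; plants at 2-leaf stage when treated.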

The test system of assay [2] is sedge, umbrella (small-flower umbrella sedge, Cyperus difformis). Description: Test B flooded paddy test. As to conditions: Cyperus difformis, Flood, 250 g ai/ha; scale of 0 to 100 where 0 is no effect and 100 is complete control; read-out: Sedge, Umbrella plant response rating. The procedure, abridged:
as §1

Assay [3] concerns ducksalad (Heteranthera limosa). Description: Test B flooded paddy test. Particulars: Heteranthera limosa, Flood, 250 g ai/ha; scale of 0 to 100 where 0 is no effect and 100 is complete control; read-out: Ducksalad plant response rating. An outline of the steps: as §1
Assay [4] deals with rice (Oryra sativa). As to the kind of experiment: Test B flooded paddy test. As to conditions: Oryza sativa, Flood, 250 g ai/ha; scale of 0 to 100 where 0 is no effect and 100 is complete control; read-out: Rice plant response rating. The procedure, abridged: as §1
In assay [5] the test system is barnyardgrass (Echinochloa crus-galli). Description: Test A postemergence. Particulars: Echinochloa crus-galli, post-emergence, 240 h, 125 g ai/ha, Postemergence; visual injury after approximately 10 d; 0 to 100 scale where 0 is no effect and 100 is complete control; read-out: Plant response rating, Barnyardgrass. An outline of the steps:
(§2)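 Ratings of 0 (no effect) to 100 (complete control) come from visual comparison with untreated controls roughly 10 d after treatment. Test chemicals, formulated in a non-phytotoxic solvent mixture with surfactant, were applied either as a preemergence directed soil spray on seeded soil or postemergence to one- to two-leaf plants 2 to 10 cm tall.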

For assay [6], the system named is giant foxtail (Setaria faberii). As to the kind of experiment: Test A postemergence. As to conditions: Setaria faberi, post-emergence, 240 h, 125 g ai/ha, Postemergence; visual injury after approximately 10 d; 0 to 100 scale where 0 is no effect and 100 is complete control; read-out: Plant response rating, Foxtail, Giant. An outline of the steps: as §2
Assay [7] relates to wheat (Triticum aestivum). Description: Test A postemergence. As to conditions: Triticum aestivum, post-emergence, 240 h, 125 g ai/ha, Postemergence; visual injury after approximately 10 d; 0 to 100 scale where 0 is no effect and 100 is complete control; read-out: Plant response rating, Wheat. The procedure, abridged:
as §2

For assay [8], the system named is ryegrass, Italian (Italian ryegrass, Lolium multiflorum). As to the kind of experiment: Test A postemergence. As to conditions: Lolium multiflorum, post-emergence, 240 h, 125 g ai/ha, Postemergence; visual injury after approximately 10 d; 0 to 100 scale where 0 is no effect and 100 is complete control; read-out: Plant response rating, Ryegrass, Italian. An outline of the steps: as §2

Assay [9] concerns pigweed (Amaranthus retroflexus). As to the kind of experiment: Test A postemergence. As to conditions: Amaranthus retroflexus, post-emergence, 240 h, 125 g ai/ha, Postemergence; visual injury after approximately 10 d; 0 to 100 scale where 0 is no effect and 100 is complete control; read-out: Plant response rating, Pigweed. An outline of the steps: as §2
For assay [10], the system named is Kochia (Kochia scoparia). Description: Test A postemergence. Particulars: Bassia scoparia, post-emergence, 240 h, 125 g ai/ha, Postemergence; visual injury after approximately 10 d; 0 to 100 scale where 0 is no effect and 100 is complete control; read-out: Plant response rating, Kochia. The procedure, abridged:
as §2

Assay [11] concerns blackgrass (Alopecurus myosuroides). Description: Test A postemergence. Particulars: Alopecurus myosuroides, post-emergence, 240 h, 125 g ai/ha, Postemergence; visual injury after approximately 10 d; 0 to 100 scale where 0 is no effect and 100 is complete control; read-out: Plant response rating, Blackgrass. An outline of the steps:
as §2

The subject of assay [12] is ragweed (common ragweed, Ambrosia elatior). Description: Test A postemergence. As to conditions: Ambrosia artemisiifolia, post-emergence, 240 h, 125 g ai/ha, Postemergence; visual injury after approximately 10 d; 0 to 100 scale where 0 is no effect and 100 is complete control; read-out: Plant response rating, Ragweed. An outline of the steps:
as §2

Assay [13] deals with Galium (catchweed bedstraw, Galium aparine). As to the kind of experiment: Test A postemergence. Particulars: Galium, post-emergence, 240 h, 125 g ai/ha, Postemergence; visual injury after approximately 10 d; 0 to 100 scale where 0 is no effect and 100 is complete control; read-out: Plant response rating, Galium. An outline of the steps: as §2
Assay [14] relates to corn (Zea mays). As to the kind of experiment: Test A postemergence. Particulars: Zea mays, post-emergence, 240 h, 125 g ai/ha, Postemergence; visual injury after approximately 10 d; 0 to 100 scale where 0 is no effect and 100 is complete control. The procedure, abridged: as §2
The test system of assay [15] is ryegrass, Italian (Italian ryegrass, Lolium multiflorum). Description: Test A preemergence. As to conditions: Lolium multiflorum, pre-emergence, 240 h; for pest or weed control at 125 g/ha: 125 g ai/ha, 0 to 100 scale where 0 is no effect and 100 is complete control; for pest or weed control at 500 g/ha: 500 g ai/ha. The procedure, abridged:
as §2

Where [16] appears, read: preemergence, read-out: Ryegrass, Italian plant response rating.
Where [17] appears, read: Preemergence, visual injury vs untreated controls after approximately 10 d, read-out: Ryegrass, Italian plant response rating (0 to 100 scale where 0 is no effect and 100 is complete control).
Where [18] appears, read: preemergence, visual injury rating about 10 d after treatment, 0 to 100 scale (0 no effect, 100 complete control), read-out: Ryegrass, Italian plant response rating.

Read-outs that look alike come from different tables or passages of the source.

On to `COc1c(F)ccc([C@H]2CNC(=O)[C@@H]2C(=O)Nc2ccccc2S(C)(=O)=O)c1Cl` [Compound 916], for which the pest or weed control at 250 g/ha in assay [1] was 0%; in assay [2], 0%; in assay [3] it was 100%; in assay [4], 0%. Moreover, the pest or weed control at 125 g/ha in assay [5] amounted to 30%; in [6], 0%; in assay [8], 0%; in assay [9] it was 0%; in assay [10], 0%; in assay [11], 0%. Further, the pest or weed control at 125 g/ha in assay [12] was determined as 0%; in assay [13] it was 30%; in assay [15] (setting [16]), 0%. Further, the plant injury at 125 g/ha in [7] was 0%. In assay [14], this compound yielded a Corn plant response rating (crop injury, 0 = no effect, 100 = complete kill) at 125 g/ha of 0%. Further, the pest or weed control at 500 g/ha in assay [15] (setting [17]) stood at 30%.

Take `CN1CC[C@H](c2cccc(Cl)c2)[C@@H](C(=O)Nc2ccccc2F)C1=O` [Compound 922]: the pest or weed control at 250 g/ha in assay [1], in assay [2], in assay [3] and in [4] was 0% throughout. For the same compound, the pest or weed control at 125 g/ha turned out to be 90% in assay [5]; 50% in assay [6]; 0% in assay [8]; 0% in assay [9]; 0% in assay [10]; 0% in [11]. Besides, the pest or weed control at 125 g/ha in assay [12] stood at 0%; in [13], 0%; in [15] (setting [16]) it was 20%. The plant injury at 125 g/ha in [7] came out at 0%. Besides, the Corn plant response rating (crop injury, 0 = no effect, 100 = complete kill) at 125 g/ha in assay [14] is 0%. In addition, in assay [15] (setting [17]), the pest or weed control at 500 g/ha was 40%.

In the case of `CN1CC[C@H](c2cccc(Cl)c2)[C@@H](C(=O)Nc2ccccc2S(C)(=O)=O)C1=O` [Compound 923], the pest or weed control at 250 g/ha in assay [1], in [2], in assay [3] and in assay [4] was 0% each time. The pest or weed control at 125 g/ha in assay [5], in assay [6], in [8], in assay [9], in assay [10] and in assay [11] was 0% throughout. Besides, the pest or weed control at 125 g/ha in assay [12], in [13] and in assay [15] (setting [16]) was 0% each time. Moreover, the plant injury at 125 g/ha in assay [7] was 0%. This compound showed a Corn plant response rating (crop injury, 0 = no effect, 100 = complete kill) at 125 g/ha in assay [14] of 0%. Besides, the pest or weed control at 500 g/ha in [15] (setting [17]) is 0%.

In the case of `O=C(Nc1cccc(Cl)c1F)[C@H]1C(=O)N(C2CC2)CC[C@@H]1c1cccc(C(F)(F)F)c1` [Compound 926], the pest or weed control at 250 g/ha in assay [1], in assay [2], in assay [3] and in assay [4] was 0% throughout. In addition, the pest or weed control at 125 g/ha turned out to be 40% in assay [5]; 40% in [6]; 0% in [8]; 0% in [9]; 0% in assay [10]; 0% in assay [11]. The pest or weed control at 125 g/ha in [12], in assay [13] and in [15] (setting [16]) was 0% each time. For the same compound, the plant injury at 125 g/ha in [7] was 0%. In addition, the Corn plant response rating (crop injury, 0 = no effect, 100 = complete kill) at 125 g/ha in [14] came out at 0%. Moreover, in [15] (setting [18]), the pest or weed control at 500 g/ha worked out at 0%.

Regarding `CS(=O)(=O)c1ccccc1NC(=O)[C@H]1C(=O)N(C2CC2)CC[C@@H]1c1cccc(C(F)(F)F)c1` [Compound 927], the pest or weed control at 250 g/ha in [1], in [2], in assay [3] and in assay [4] was 0% throughout. In addition, the pest or weed control at 125 g/ha in assay [5], in assay [6], in assay [8], in assay [9], in assay [10] and in assay [11] was 0% in each case. In addition, the pest or weed control at 125 g/ha in [12], in assay [13] and in [15] (setting [16]) was 0% each time. In addition, the plant injury at 125 g/ha in assay [7] turned out to be 0%. In [14], this compound displayed a Corn plant response rating (crop injury, 0 = no effect, 100 = complete kill) at 125 g/ha of 0%. Besides, the pest or weed control at 500 g/ha in assay [15] (setting [18]) amounted to 0%.

As for `CCc1ccccc1NC(=O)[C@H]1C(=O)N(C)C[C@@H]1c1ccc(C(F)(F)F)cc1` [Compound 935], the pest or weed control at 250 g/ha is 0% in assay [1], 0% in [2], 70% in assay [3] and 0% in assay [4]. Moreover, the pest or weed control at 125 g/ha in assay [5] turned out to be 70%; in assay [6] it was 90%; in [8], 20%; in [9], 20%; in [10], 30%; in assay [11] it was 60%. Further, the pest or weed control at 125 g/ha in assay [12] is 0%; in [13] it was 40%. For the same compound, in assay [7], the plant injury at 125 g/ha worked out at 30%. Also, in [14], the Corn plant response rating (crop injury, 0 = no effect, 100 = complete kill) at 125 g/ha turned out to be 40%. Also, in assay [15] (setting [18]), the pest or weed control at 500 g/ha came to 50%.

Turning to `CN1C[C@H](c2ccc(C(F)(F)F)cc2)[C@@H](C(=O)Nc2cccc(F)c2Cl)C1=O` [Compound 938], the pest or weed control at 250 g/ha in [1] amounted to 40%; in [2] it was 0%; in assay [3] it was 60%; in [4], 0%. Also, the pest or weed control at 125 g/ha in assay [5] came out at 80%; in [6], 80%; in assay [8], 20%; in [9] it was 50%; in assay [10], 40%; in assay [11], 40%. Also, the pest or weed control at 125 g/ha came to 0% in [12] and 50% in assay [13]. For the same compound, the plant injury at 125 g/ha in [7] was 40%. For the same compound, the Corn plant response rating (crop injury, 0 = no effect, 100 = complete kill) at 125 g/ha in assay [14] was 60%. The pest or weed control at 500 g/ha in assay [15] (setting [18]) worked out at 30%.

These data come from US12077503B2, “Substituted cyclic amides and their use as herbicides” (FMC CORPORATION, priority 2015, dated 2024).
